Measurements: ChEMBL document CHEMBL5131431, “Effect of removal of the 14-hydroxy group on the affinity of the 4,5-epoxymorphinan derivatives for orexin and opioid receptors” (Bioorg Med Chem Lett, 2022)

How the values were obtained:
[1] = target: T1, Orexin/Hypocretin receptor type 1 (Homo sapiens, UniProt O43613); experiment: Binding affinity to OX1R (unknown origin) by calcium assay
T1 sequence (O43613 whole entry): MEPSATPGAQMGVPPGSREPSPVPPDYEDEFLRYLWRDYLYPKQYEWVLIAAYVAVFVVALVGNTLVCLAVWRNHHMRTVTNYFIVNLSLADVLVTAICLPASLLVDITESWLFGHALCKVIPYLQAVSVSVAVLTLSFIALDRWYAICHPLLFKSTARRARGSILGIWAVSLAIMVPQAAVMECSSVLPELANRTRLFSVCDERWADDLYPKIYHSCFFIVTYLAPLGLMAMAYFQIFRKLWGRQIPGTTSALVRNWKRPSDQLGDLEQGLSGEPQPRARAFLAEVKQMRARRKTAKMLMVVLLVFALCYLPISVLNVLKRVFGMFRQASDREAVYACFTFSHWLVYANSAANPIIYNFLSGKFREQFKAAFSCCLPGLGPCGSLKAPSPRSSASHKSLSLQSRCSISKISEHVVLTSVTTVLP

[2] = target: Mu-type opioid receptor (Homo sapiens, UniProt P35372); experiment: Displacement of [3H]DAMGO from human MOR expressed in HEK293 cell membrane; format: cell membranes
[3] = target: Kappa-type opioid receptor (Homo sapiens, UniProt P41145); experiment: Displacement of […] from human KOR expressed in HEK293 cell membrane; format: cell membranes
[4] = target: Delta-type opioid receptor (Homo sapiens, UniProt P41143); experiment: Displacement of […] from human DOR expressed in HEK293 cell membrane; format: cell membranes
[5] = organism: Homo sapiens; experiment: Selectivity index, ratio of Ki for displacement of [3H]DAMGO from human MOR expressed in HEK293 cell membrane to displacement of […] from human KOR expressed in HEK293 cell membrane
[6] = organism: Homo sapiens; experiment: Selectivity index, ratio of Ki for displacement of […] from human DOR expressed in HEK293 cell membrane to displacement of […] from human KOR expressed in HEK293 cell membrane

Chain of Kappa-type opioid receptor (P41145 whole entry): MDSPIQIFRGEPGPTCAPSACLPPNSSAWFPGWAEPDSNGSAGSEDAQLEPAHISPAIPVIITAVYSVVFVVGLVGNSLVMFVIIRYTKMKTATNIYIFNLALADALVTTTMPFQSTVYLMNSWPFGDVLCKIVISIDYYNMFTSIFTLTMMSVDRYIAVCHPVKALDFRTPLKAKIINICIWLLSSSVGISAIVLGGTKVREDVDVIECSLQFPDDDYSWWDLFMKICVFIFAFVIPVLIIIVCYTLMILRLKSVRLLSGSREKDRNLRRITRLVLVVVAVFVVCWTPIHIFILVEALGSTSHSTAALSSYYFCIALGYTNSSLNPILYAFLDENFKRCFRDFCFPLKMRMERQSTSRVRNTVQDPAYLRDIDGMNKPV
Chain of Delta-type opioid receptor (P41143 whole entry): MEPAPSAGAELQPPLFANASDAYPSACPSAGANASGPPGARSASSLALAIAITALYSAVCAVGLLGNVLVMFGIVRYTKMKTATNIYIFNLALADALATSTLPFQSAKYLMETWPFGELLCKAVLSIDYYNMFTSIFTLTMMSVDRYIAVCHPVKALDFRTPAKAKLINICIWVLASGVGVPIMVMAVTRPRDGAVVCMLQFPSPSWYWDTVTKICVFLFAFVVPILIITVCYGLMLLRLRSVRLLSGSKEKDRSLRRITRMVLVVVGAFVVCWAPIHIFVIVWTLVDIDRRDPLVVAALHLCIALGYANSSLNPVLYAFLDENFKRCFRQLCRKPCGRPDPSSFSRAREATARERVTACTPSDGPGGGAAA
Chain of Mu-type opioid receptor (P35372 whole entry): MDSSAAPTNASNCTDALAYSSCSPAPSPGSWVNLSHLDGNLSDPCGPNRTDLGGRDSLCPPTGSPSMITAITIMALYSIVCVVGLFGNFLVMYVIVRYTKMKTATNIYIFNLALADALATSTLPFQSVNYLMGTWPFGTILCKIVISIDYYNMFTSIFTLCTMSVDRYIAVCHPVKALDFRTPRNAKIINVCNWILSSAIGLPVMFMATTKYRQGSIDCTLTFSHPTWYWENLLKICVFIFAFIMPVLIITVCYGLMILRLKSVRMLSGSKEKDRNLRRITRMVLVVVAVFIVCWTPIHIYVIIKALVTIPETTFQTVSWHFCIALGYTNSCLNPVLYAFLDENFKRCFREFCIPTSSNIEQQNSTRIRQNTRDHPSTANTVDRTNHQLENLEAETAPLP

CN(C(=O)/C=C/c1ccoc1)[C@@H]1CCC2[C@H]3Cc4ccc(O)c5c4[C@@]2(CCN3CC2CC2)[C@H]1O5 (some centres undefined)
Ki [1]: 218 nM | Ki [2]: 0.158 nM | Ki [3]: 0.0272 nM | Ki [4]: 9.76 nM | Ratio Ki [5]: 5.8 | Ratio Ki [6]: 359

COc1ccc2c3c1O[C@H]1[C@H](N(C)C(=O)/C=C/c4ccoc4)CCC4[C@@H](C2)N(CC2CC2)C[C@@]341 (some centres undefined)
IC50 [1]: > 10000 nM

COc1ccc2c3c1O[C@H]1[C@H](N(C)C(=O)/C=C/c4ccoc4)CCC4[C@@H](C2)N(CC2CC2)CC[C@@]341 (some centres undefined)
Ki [1]: 28.7 nM

CN(C(=O)/C=C/c1ccoc1)[C@@H]1CC=C2[C@H]3Cc4ccc(O)c5c4[C@@]2(CN3CC2CC2)[C@H]1O5
IC50 [1]: > 10000 nM | Ki [2]: > 10000 nM | Ki [3]: 1410 nM | Ki [4]: > 10000 nM

CN(C(=O)/C=C/c1ccoc1)[C@@H]1CC[C@@]2(O)[C@H]3Cc4ccc(O)c5c4[C@@]2(CCN3CC2CC2)[C@H]1O5 [NALFURAFINE]
Ki [2]: 0.7 nM | Ki [4]: 36.5 nM

COc1ccc2c3c1O[C@H]1[C@H](N(C)C(=O)/C=C/c4ccoc4)CC=C4[C@@H](C2)N(CC2CC2)C[C@]431
IC50 [1]: > 10000 nM

CN(C(=O)/C=C/c1ccoc1)[C@@H]1CCC2[C@H]3Cc4ccc(O)c5c4[C@@]2(CN3CC2CC2)[C@H]1O5 (some centres undefined)
IC50 [1]: > 10000 nM | Ki [2]: > 10000 nM | Ki [3]: 283 nM | Ki [4]: > 10000 nM

CN(C(=O)/C=C/c1ccoc1)[C@@H]1CC[C@@]2(O)[C@H]3Cc4ccc(O)c5c4[C@@]2(CN3CC2CC2)[C@H]1O5
Ki [2]: > 5000 nM | Ki [3]: > 5000 nM | Ki [4]: > 5000 nM

CN(C(=O)/C=C/c1ccoc1)[C@@H]1CC=C2[C@H]3Cc4ccc(O)c5c4[C@@]2(CCN3CC2CC2)[C@H]1O5
Ki [1]: 30.5 nM | Ki [2]: 3.57 nM | Ki [3]: 0.0356 nM | Ki [4]: 26.3 nM | Ratio Ki [5]: 100 | Ratio Ki [6]: 739

COc1ccc2c3c1O[C@H]1[C@H](N(C)C(=O)/C=C/c4ccoc4)CC=C4[C@@H](C2)N(CC2CC2)CC[C@]431
Ki [1]: 19 nM
